Measured values from BindingDB's records for doi:10.1021/jm00075a013 (Ciba-Geigy, 1994).

Columns and labels:
[1] = target: Arachidonate 5-lipoxygenase (Cavia porcellus); test: In vitro inhibitory activity against 5-lipoxygenase by reduction of 5-hydroxyeicosatetraenoic acid (5-HETE) formed in guinea pig polymorphonuclear leukocytes (PMNs).
[2] = target: Arachidonate 5-lipoxygenase (Cavia porcellus); test: In vitro inhibitory activity against 5-lipoxygenase by reduction of LTB4 formed in guinea pig polymorphonuclear leukocytes (PMNs).
[3] = target: Thromboxane-A synthase (Homo sapiens) (UniProt P24557); test: Inhibitory concentration against human platelet thromboxane synthetase
Chain of Thromboxane-A synthase (Homo sapiens) (P24557 whole entry, looked up): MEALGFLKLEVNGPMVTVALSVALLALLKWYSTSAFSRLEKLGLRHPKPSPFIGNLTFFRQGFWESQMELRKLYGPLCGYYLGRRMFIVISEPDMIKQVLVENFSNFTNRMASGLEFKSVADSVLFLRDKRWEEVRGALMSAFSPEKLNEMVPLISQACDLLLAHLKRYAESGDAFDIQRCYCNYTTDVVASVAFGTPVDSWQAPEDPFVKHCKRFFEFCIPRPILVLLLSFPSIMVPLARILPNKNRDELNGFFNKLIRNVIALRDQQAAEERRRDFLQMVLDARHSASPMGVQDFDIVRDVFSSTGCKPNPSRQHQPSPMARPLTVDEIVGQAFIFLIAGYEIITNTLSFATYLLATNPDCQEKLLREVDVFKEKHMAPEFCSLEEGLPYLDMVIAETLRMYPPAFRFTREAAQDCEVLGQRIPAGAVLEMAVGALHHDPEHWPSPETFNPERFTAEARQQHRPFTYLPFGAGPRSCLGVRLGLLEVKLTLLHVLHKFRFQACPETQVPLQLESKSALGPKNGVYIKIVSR

[4] = target: Arachidonate 5-lipoxygenase (Cavia porcellus); test: In vitro inhibitory activity against 5-lipoxygenase by reduction of 5-hydroxyeicosatetraenoic acid (5-HETE) formed in guinea pig polymorphonuclear leukocytes (PMNs).; remark: listed apart in the source

IC50 [1]	IC50 [2]	IC50 [3]	IC50 [4]	Compound
1400 nM	1400 nM			NC(=O)N(O)CC1=Cc2cc(Br)ccc2OC1 [N-[(6-bromo-2H-chromen-3-yl)methyl]-N-hydroxyurea]
		> 20000 nM		CNC(=O)N(O)CC1=Cc2cc(Oc3ccc(F)cc3)ccc2OC1 [N-{[6-(4-fluorophenoxy)-2H-chromen-3-yl]methyl}-N-hydroxy-N'-methylurea]
		> 20000 nM		CC(c1cc2ccccc2s1)N(O)C(N)=O (racemic) [Leutrol]
	200 nM		180 nM	NC(=S)N(O)CC1=Cc2cc(Oc3ccccc3)ccc2OC1 [N-hydroxy-N-[(6-phenoxy-2H-chromen-3-yl)methyl]thiourea]
68 nM	74 nM			CCOC(=O)CNC(=O)N(O)CC1=Cc2cc(Oc3ccccc3)ccc2OC1 [ethyl [({hydroxy[(6-phenoxy-2H-chromen-3-yl)methyl]amino}carbonyl)amino]acetate]
	> 3000 nM		> 3000 nM	COc1ccc2c(c1)OCC(CN(O)C(N)=O)C2 (stereo not given) [N-hydroxy-N-[(7-methoxy-3,4-dihydro-2H-chromen-3-yl)methyl]urea]
	490 nM		430 nM	NC(=O)N(O)CC1=Cc2cc(OCc3ccc(C(F)(F)F)cc3)ccc2OC1 [N-[6-(4-Trifluoromethyl-benzyloxy)-2H-chromen-3-ylmethyl]-hydroxylurea]

The next lines start with the compound.

Compound	IC50 [1]	IC50 [2]	IC50 [3]	IC50 [4]
CCCCNC(=O)N(O)CC1=Cc2cc(Oc3ccccc3)ccc2OC1 [N-hydroxy-N-[(6-phenoxy-2H-chromen-3-yl)methyl]-N'-butylurea]	65 nM	69 nM		
NC(=O)N(O)CC1=Cc2cc(OCc3ccccc3)ccc2OC1 [N-(6-Benzyloxy-2H-chromen-3-ylmethyl)-hydroxylurea]	440 nM	380 nM		
NC(=O)N(O)CC1=Cc2cc(OCC3CCCCC3)ccc2OC1 [N-(6-Cyclohexylmethoxy-2H-chromen-3-ylmethyl)-hydroxylurea]	1360 nM	1390 nM		
CC1(C)Oc2ccc(Oc3ccccc3)cc2C=C1CN(O)C(N)=O [N-[(2,2-dimethyl-6-phenyoxy-2H-chromen-3-yl)methyl]-N-hydroxyurea]		440 nM		310 nM
CC(C)NC(=O)N(O)CC1=Cc2cc(Oc3ccccc3)ccc2OC1 [N-hydroxy-N'-isopropyl-N-[(6-phenoxy-2H-chromen-3-yl)methyl]urea]		63 nM		49 nM
NC(=O)N(O)CC1=Cc2cc(OCCCc3ccccc3)ccc2OC1		160 nM		130 nM
CCCCCCOc1ccc2c(c1)C=C(CN(O)C(N)=O)CO2 [N-(6-Hexyloxy-2H-chromen-3-ylmethyl)-hydroxylurea]		340 nM		280 nM
CC1Oc2ccc(Oc3ccccc3)cc2C=C1CN(O)C(N)=O (stereo not given) [N-hydroxy-N-[(2-methyl-6-phenyoxy-2H-chromen-3-yl)methyl]urea]		87 nM		120 nM
NC(=O)N(O)CC1=Cc2cc(-c3ccccc3)ccc2OC1 [N-hydroxy-N-[(6-phenyl-2H-chromen-3-yl)methyl]urea]	240 nM	230 nM		
NC(=O)N(O)CC1=Cc2cc(Oc3ccccc3)ccc2OC1 [N-hydroxy-N-[(6-phenoxy-2H-chromen-3-yl)methyl]urea]			> 20000 nM	
CCCC1Oc2ccc(Oc3ccccc3)cc2C=C1CN(O)C(N)=O (stereo not given) [N-hydroxy-N-[(6-phenyoxy-2-propyl-2H-chromen-3-yl)methyl]urea]		870 nM		880 nM
C=CCNC(=O)N(O)CC1=Cc2cc(Oc3ccccc3)ccc2OC1 [N'-allyl-N-hydroxy-N-[(6-phenoxy-2H-chromen-3-yl)methyl]urea]	37 nM	44 nM		
